The values that follow come from PMC6751662, “Pharmacological and functional similarities of the human neuropeptide Y system in C. elegans challenges phylogenetic views on the FLP/NPR system” (Cell Communication and Signaling : CCS, 2019).

Data set [1] addresses T1, NPR-11 (Caenorhabditis elegans, UniProt Q18179).
T1 construct: expressed in transfected cells; host or cells: HEK293, transient
T1 sequence (Q18179 1-402): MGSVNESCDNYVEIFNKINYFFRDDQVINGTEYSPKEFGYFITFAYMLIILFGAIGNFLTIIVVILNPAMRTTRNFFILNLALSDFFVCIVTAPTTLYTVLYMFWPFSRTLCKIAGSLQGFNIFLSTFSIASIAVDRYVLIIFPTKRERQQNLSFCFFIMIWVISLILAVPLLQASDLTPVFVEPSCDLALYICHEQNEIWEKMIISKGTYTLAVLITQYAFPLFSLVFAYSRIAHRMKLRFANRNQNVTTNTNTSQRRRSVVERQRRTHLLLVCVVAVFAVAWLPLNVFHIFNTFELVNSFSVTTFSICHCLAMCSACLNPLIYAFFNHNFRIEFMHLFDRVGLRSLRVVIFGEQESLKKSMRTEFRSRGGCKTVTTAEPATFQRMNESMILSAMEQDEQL
Put plainly: IP accumulation assay, chimeric GαΔ6qi4myr, NPR-11. Format: cell-based, C. elegans. Conditions: 1 h, HBSS + 20 mM LiCl, HEK293 receptor + GαΔ6qi4myr, HTRF IP-One. Here is the method:
For measuring IP accumulation, HEK293 cells grown to 70–80% confluency in 6-well plates were transiently co-transfected using Metafectene Pro (2.5 μl/μg DNA; Biontex) with plasmids containing receptor and/or mock (empty pcDNA3.1) (for endogenous Gq-coupling) using 4 μg total DNA in a ratio of 3:1 following the manufacturer’s instructions. For testing Gα16- and GαΔ6qi4myr-coupling, plasmids encoding the corresponding Gα protein were co-transfected instead of mock. Gα16 is naturally promiscuous and stimulates the phospholipase C (PLC) pathway leading to IP production, while the exchange of the C-terminal four amino acids of Gαq for the corresponding residues of Gαi1 in the chimeric GαΔ6qi4myr confers the ability to couple to Gi/o protein-preferring receptors but still stimulate PLC, thus specifically redirecting downstream cellular signaling. 16 h post transfection, the cells were seeded into white 384-well plates at a density of 20,000 cells/well. Media was removed 24 h later and the cells were incubated with the indicated concentration of peptides for 1 h in HBSS + 20 mM LiCl. IP accumulation was measured with the HTRF-based IP-One Gq kit (Cisbio) on a microplate reader (Tecan Spark).
(§1) For in vitro activation, data is presented as mean ± SEM of at least three independent experiments conducted in technical triplicate. […] For the C. elegans NPRs, we considered the strongest response elicited by any of the peptides downstream of a particular receptor as the receptor’s maximal signal. This may or may not be the biological maximum that can be reached by the ‘true’ endogenous agonist. For the human receptors, the response to the established endogenous agonist reflected the maximal signal.
On the technique in general: TR-FRET usually uses a lanthanide donor and a delayed reading to cut background.

The target in data set [2] is T2, Y1R (Homo sapiens, UniProt P25929).
T2 construct: expressed in transfected cells; host or cells: HEK293, transient
T2 sequence (P25929 1-384): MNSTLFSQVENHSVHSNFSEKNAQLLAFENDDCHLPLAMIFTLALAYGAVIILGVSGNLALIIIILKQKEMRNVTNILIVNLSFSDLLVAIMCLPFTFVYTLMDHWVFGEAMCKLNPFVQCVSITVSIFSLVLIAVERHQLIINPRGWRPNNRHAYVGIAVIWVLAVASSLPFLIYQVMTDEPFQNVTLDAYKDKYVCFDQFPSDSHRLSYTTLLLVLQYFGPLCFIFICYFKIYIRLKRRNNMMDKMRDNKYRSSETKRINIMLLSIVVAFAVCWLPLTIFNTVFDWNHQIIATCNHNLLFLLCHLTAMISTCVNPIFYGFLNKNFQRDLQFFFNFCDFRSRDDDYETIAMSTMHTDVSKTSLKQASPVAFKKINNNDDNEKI
Nature of the data set: cAMP reporter gene assay, Gi/o, Y1R. Format: cell-based. To be noted: for cAMP assay (Gi/o), Y1R: 4 h, lower = higher Gi/o activity, transfected HEK293, CRE-luciferase, mean of >=3 independent experiments; for Gi (Gs) [x-fold of forskolin], Y1R, mean: inhibition of cAMP production induced by 1 µM forskolin (set to 1.00), transiently transfected HEK293 cells, mean of at least three independent experiments. As for the experimental part:
Activation of Gs and Gi/o was assessed with a cAMP reporter gene assay. HEK293 cells grown to 70–80% confluency in 6-well plates were transiently co-transfected with vectors encoding the receptor and the cAMP reporter gene plasmid pGL4.29 [luc2P/CRE/Hygro] (Promega; 4 μg total, 1:1 ratio) using Metafectene Pro (3 μl/μg DNA; Biontex) following the manufacturer’s instructions. 16 h post transfection, the cells were seeded into white 384-well plates at a density of 20,000 cells/well. On the next day, the medium was removed and the cells were stimulated with 20 μl of peptide solution (or forskolin as positive control) in serum-free DMEM for 4 h. For measuring Gi/o activity, the peptide solutions additionally contained 1 μM forskolin to elevate cellular cAMP levels. After incubation, the luciferase substrate OneGlo in lysis buffer (Promega) was added and the luminescence was measured in a microplate reader Tecan Spark (Tecan). Data were analyzed with GraphPad Prism 5.03 and are shown as fold of basal or fold of forskolin in case of Gαi/o activity.
as §1
On the technique in general: A reporter such as luciferase makes a cellular process visible.

Data set [3] is described as follows: Solubility of crude peptides in RP-HPLC purification solvents. Format: physicochemical. Conditions: for solubility of crude peptide: H2O + 0.1% TFA / acetonitrile + 0.08% TFA (RP-HPLC purification conditions); for solubility of crude peptide at basic pH: 10 mM (NH4)2CO3, pH 8.5, used for purification. As for the experimental part:
C-terminally amidated peptides were synthesized in 15 μmol scale by solid-phase peptide synthesis following the Fmoc/tert-butyl strategy (reviewed in [18]) on Rink amide resin using an automated Syro II peptide synthesizer (MultiSynTech). Automated coupling reactions were performed as double couplings using 8 eq Nα-protected amino acid, activated in situ with equimolar amounts of Oxyma and […] in dimethylformamide (DMF) for 30 min. Automated Fmoc deprotection was carried out with 40% (v/v) piperidine in DMF for 3 min and 20% (v/v) piperidine in DMF for 10 min. Reactive side chains of amino acids were protected by tert-butyl (tBu for Tyr, Ser, Asp, Glu, Thr), trityl (Trt for Asn, Gln, His), 2,2,4,6,7-pentamethyldihydrobenzofuran-5-sulfonyl (Pbf for Arg) and tert-butyloxycarbonyl (Boc for Lys). Peptides were cleaved off the resin using trifluoroacetic acid (TFA)/H2O/triisopropylsilane (90/5/5, v/v/v) for 2.5 h at room temperature and precipitated in ice cold diethyl ether. All peptides were purified to > 95% purity by RP-HPLC (Shimadzu) using a Phenomenex Jupiter 10 μm Proteo 90 Å (C12) column. For most peptides, linear gradients of H2O + 0.1% trifluoroacetic acid (TFA) (eluent A) and acetonitrile (ACN) + 0.08% TFA (eluent B) were applied at a flow rate of 10 ml/minute. […] FLP-27, FLP-33, and FLP-34 were solubilized by ultrasonication at 50 °C for 10 min and subsequently purified under standard solvent conditions used pre-heated HPLC systems. […] Peptide identity was verified by matrix-assisted laser desorption/time of flight (MALDI-ToF; Ultraflex III MALDI-ToF/ToF, Bruker Daltonics) mass spectrometry, and peptide purity was evaluated with analytical RP-HPLC.

Where [4] appears, read: 0.1 µM peptide (Table S8), mean of >=3 independent experiments.
Setting [5] is: 10 µM peptide, mean of >=3 independent experiments (Tables S5 and S8).
Where [6] appears, read: 0.1 µM peptide + 1 µM forskolin (set to 1.00).
The mark [7] stands for this setting: 10 µM peptide + 1 µM forskolin (set to 1.00).

Ends that are not written are not given here.

In the case of “AGSDPNFLRF-NH2 [FLP-1-2, C. elegans FMRFamide-like peptide, C-terminally amidated, synthesized by SPPS]”, the “IP accumulation with GαΔ6qi4myr, NPR-11” value was 0.92 x-fold of basal in data set [1] (setting [4]) and 6.48 x-fold of basal in data set [1] (setting [5]).

Regarding “APKPKFIRF-NH2 [FLP-5-1, C. elegans FMRFamide-like peptide, C-terminally amidated, synthesized by SPPS]”, the “IP assay endog. Gαq + GαΔ6qi4myr, NPR-11” value in data set [1] (0.1 nM peptide (Table S5), mean of >=3 independent experiments) is 1.03 x-fold of basal. Moreover, the “IP accumulation with GαΔ6qi4myr, NPR-11” value in data set [1] (setting [4]) is on record as 1.03 x-fold of basal; in data set [1] (setting [5]), 6.49 x-fold of basal.

Consider “APLEGFEDMSGFLRTIDGIQKPRF-NH2 [FLP-33, NPY-like C. elegans FLP with C-terminal RxRF/Ya signature]”, for which the “cAMP assay (Gi/o), Y1R” value in data set [2] (setting [6]) is recorded as 0.94 x-fold of forskolin; in data set [2] (setting [7]), 0.73 x-fold of forskolin. The “solubility of crude peptide” value in data set [3] is given as “partly insoluble”.

As to “ASPSFIRF-NH2 [FLP-4-2, C. elegans FMRFamide-like peptide, C-terminally amidated, synthesized by SPPS]”, the “IP accumulation with GαΔ6qi4myr, NPR-11” value was 1.03 x-fold of basal in data set [1] (setting [4]) and 2.79 x-fold of basal in data set [1] (setting [5]).

Take “EASAFGDIIGELKGKGLGGRMRF-NH2 [FLP-27, NPY-like C. elegans FLP with C-terminal RxRF/Ya signature]”: the figures for the “cAMP assay (Gi/o), Y1R” value in data set [2] (setting [6]) and in data set [2] (setting [7]) were 0.88 x-fold of forskolin and 0.23 x-fold of forskolin, respectively. The “solubility of crude peptide” value in data set [3] is “partly insoluble”.

Consider “GLGPRPLAF-NH2 [[R8A]FLP-21, R8A control peptide of FLP-21, penultimate arginine exchanged for an alanine]”, for which the “Gi (Gs) [x-fold of forskolin], Y1R, mean” value in data set [2] (0.1 µM peptide) is 0.85 x-fold of forskolin; in data set [2] (10 µM peptide), 0.76 x-fold of forskolin.

Turning to GLGPRPLRF-NH2 [FLP-21], in data set [3], the “solubility of crude peptide at basic pH” value was “improved solubility at basic pH” and the “solubility of crude peptide” value is listed as “partly insoluble”.

“NPENDTPFGTMRF-NH2 [FLP-3-4, C. elegans FMRFamide-like peptide, C-terminally amidated, synthesized by SPPS]”: in data set [3], the “solubility of crude peptide at basic pH” value is “improved solubility at basic pH” and the “solubility of crude peptide” value is on record as “partly insoluble”. Also, the “IP accumulation with GαΔ6qi4myr, NPR-11” value in data set [1] (setting [4]) is recorded as 0.92 x-fold of basal. Besides, the “IP accumulation with GαΔ6qi4myr, NPR-11” value in data set [1] (setting [5]) is 1.17 x-fold of basal.

RGPSGPLAF-NH2 [[R8A]FLP-15-2]: the “Gi (Gs) [x-fold of forskolin], Y1R, mean” value is given as 0.72 x-fold of forskolin in data set [2] (0.1 µM peptide) and 0.71 x-fold of forskolin in data set [2] (10 µM peptide).

With RGPSGPLRF-NH2 [FLP-15-2], in data set [3], the “solubility of crude peptide at basic pH” value is on record as “improved solubility at basic pH” and the “solubility of crude peptide” value is “partly insoluble”.

For the substance SEVPGVLRF-NH2 [FLP-18-5], in data set [3], the “solubility of crude peptide at basic pH” value was “improved solubility at basic pH” and the “solubility of crude peptide” value is on record as “partly insoluble”.
